Like-named read-outs stand apart in the source and are kept apart here.
How the values were obtained:
[1] = molecular target: T1, β-glucoronidase (Escherichia coli, UniProt P05804); experiment: β-Glucuronidase inhibition assay (spectrophotometric, p-nitrophenyl-β-D-glucuronide substrate); type: biochemical; settings: for % inhibition: test concentration not given
T1 construct: purchased Sigma Aldrich G7396-25KU
Procedure: β-Glucuronidase inhibition assay protocol: Inhibitory activity of β-Glucuronidase was determined with the help of spectrophotometric method by measuring the absorbance at 405 nm of p-nitro phenol formed from the substrate (p-nitro phenyl-β-D-glucuronide, N1627-250 mg, Sigma Aldrich). The total reaction volume was 250 μL. The compound dissolved in DMSO (100%), which becomes 2% in the ultimate assay (250 μL) and the similar conditions were used for standard (D-saccharin acid 1,4-lactone, Sigma Aldrich). The reaction mixture contained 185 μL of 0.1 M acetate buffer, 5 μL of test compound solution, 10 μL of (1U) enzyme solution (G7396-25KU, Sigma Aldrich) was incubated at 37° C. for 30 min. The plates were read on a multiplate reader (SpectraMax plus 384) at 405 nm after the addition of 50 μL of 0.4 mM p-nitrophenyl-β-D-glucuronide. All assays were performed in triplicate. IC50 Values were calculated by using EZ-Fit software (Perrella Scientific Inc., Amherst, Mass., U.S.A.). These values are the mean of three independent readings.

[2] = Cytotoxicity assay (MTT) on 3T3 mouse fibroblast cells; type: cell-based; settings: 1-30 μM tested
Procedure: (§1) Cytotoxicity assay Protocol: Cytotoxic activity of compounds was evaluated in 96-well flat-bottomed micro plates by using the standard MTT (3-[4,5-dimethylthiazole-2-yl]-2,5-diphenyl-tetrazolium bromide) colorimetric assay (15). For this purpose, 3T3 (mouse fibroblast) cells were cultured in Dulbecco's Modified Eagle Medium, supplemented with 5% of fetal bovine serum (FBS), 100 IU/ml of penicillin and 100 μg/ml of streptomycin in 75 cm^2 flasks, and kept in 5% CO2 incubator at 37° C. Exponentially growing cells were harvested, counted with haemocytometer and diluted with a particular medium. Cell culture with the concentration of 5×10^4 cells/ml was prepared and introduced (100 μL/well) into 96-well plates.
(§2) After overnight incubation, medium was removed and 200 μL of fresh medium was added with different concentrations of compounds (1-30 μM). After 48 hrs, 200 ptL MTT (0.5 mg/ml) was added to each well and incubated further for 4 hrs. Subsequently, 100 μLof DMSO was added to each well. The extent of MTT reduction to formazan within cells was calculated by measuring the absorbance at 540 nm, using a micro plate reader (Spectra Max plus, Molecular Devices, Calif., USA). The cytotoxicity was recorded as concentration causing 50% growth inhibition (IC50) for 3T3 cells. The percent inhibition was calculated by using the following formula
(§3) % inhibition=100−((mean of O.D of test compound−mean of O.D of negative control)/(mean of O.D of positive control−mean of O.D of negative control)*100).
(§4) The results (% inhibition) were processed by using Soft-Max Pro software (Molecular Device, USA).

[3] = system: 3T3 (mouse fibroblast) cells; experiment: as above; type: cell-based; settings: 48 hrs, 1-30 μM tested
Procedure: as §1, §2, §3, §4

[4] = β-glucuronidase, 37° C., 30 min incubation, absorbance at 405 nm, mean of three readings, read-out: IC50

T1 sequence (P05804 whole entry): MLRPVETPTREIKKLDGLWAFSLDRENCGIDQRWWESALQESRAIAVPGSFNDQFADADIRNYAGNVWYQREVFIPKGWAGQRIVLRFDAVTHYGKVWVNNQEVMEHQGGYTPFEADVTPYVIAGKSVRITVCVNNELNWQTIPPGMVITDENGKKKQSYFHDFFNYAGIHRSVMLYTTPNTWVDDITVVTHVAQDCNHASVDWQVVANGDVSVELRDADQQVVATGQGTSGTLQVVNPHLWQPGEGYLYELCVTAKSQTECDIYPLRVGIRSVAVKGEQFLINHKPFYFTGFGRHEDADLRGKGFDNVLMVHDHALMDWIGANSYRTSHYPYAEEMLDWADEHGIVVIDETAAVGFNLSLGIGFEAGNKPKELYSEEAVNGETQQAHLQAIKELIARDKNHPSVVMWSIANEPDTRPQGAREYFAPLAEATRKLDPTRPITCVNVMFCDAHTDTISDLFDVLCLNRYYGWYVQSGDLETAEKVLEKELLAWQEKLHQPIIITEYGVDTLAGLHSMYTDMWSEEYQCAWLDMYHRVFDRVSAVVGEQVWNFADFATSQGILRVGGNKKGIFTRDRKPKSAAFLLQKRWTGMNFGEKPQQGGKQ

SMILES	IC50 [1] [µM]	% inhibition ([1]; β-glucuronidase) [%]	IC50 at 48 h [2] [µM]	IC50 [1, 4] [µM]	IC50 [3] [µM]
Oc1cccc(C(c2c[nH]c3ccc(Br)cc23)c2c[nH]c3ccc(Br)cc23)c1O [Compound 1]	1.2 ± 1.03	97.8	16.8 ± 0.997		
O=C(/C=C/c1ccc(O)cc1)OC[C@@H]1C[C@H](Oc2cc(O)c3c(=O)cc(-c4ccc(O)cc4)oc3c2)[C@@H](O)[C@H](O)[C@H]1O [Compound 3]		96.9	> 30	4.5 ± 0.44	
COc1ccc(C=NN2C(c3n[nH]c(=S)[nH]3)=C(O)c3ccccc3S2(=O)=O)cc1OC [Compound 5]	11.41 ± 0.04	78.1	13.8 ± 0.967		
C=S1(=O)c2ccccc2C(O)=C(c2n[nH]c(=S)[nH]2)N1/N=C/c1ccc(OC)c(OC)c1OC (centres unmarked) [Compound 6]		81.0	17.1 ± 1.41	11.8 ± 0.86	
CCN(CC)c1ccc(/C=N/N2C(c3n[nH]c(=S)[nH]3)=C(O)c3ccccc3S2(=O)=O)cc1 [Compound 7]		95.1	> 30	14.7 ± 1.88	
COc1cccc(/C=N/N2C(c3n[nH]c(=S)[nH]3)=C(O)c3ccccc3S2(=O)=O)c1O [Compound 10]		93.4			19.5 ± 1.07
N#Cc1ccc2[nH]cc(C(c3ccccc3[N+](=O)[O-])c3c[nH]c4ccc(C#N)cc34)c2c1 [Compound 11]	34.9 ± 0.21	57.3	9.56 ± 0.134		
O=C1OC(C(O)C(=O)O)C(O)C1O [D-sacharric 1,4-lactone, D-saccharic acid, 1,4-lactone, reference compound]		89.4		45.5 ± 2.16	
C[C@@H]1C[C@@H]([C@H](O)CC2CC(=O)NC(=O)C2)C(=O)[C@@H](C)C1 [cycloheximide, reference compound]			0.2		
